We go through 5 compounds from patent US8143301B2, “Hepatitis C virus inhibitors” (Bristol Myers Squibb Company, priority 2009, dated 2012).

Where two headings read alike, the source gives them in different places.

The test concerns HCV 1b genotype. Nature of the test: HCV Replicon assay, 1b genotype. Type of test: cell-based. The settings on record: Hepatitis C virus, HCV 1b genotype replicon. Here is the method: An HCV Replicon assay was utilized in the present disclosure, and was prepared, conducted and validated as described in commonly owned PCT/US2006/022197 and in O'Boyle et. al. Antimicrob Agents Chemother. 2005 April; 49(4):1346-53. Assay methods incorporating luciferase reporters have also been used as described (Apath.com).
HCV-neo replicon cells and replicon cells containing mutations in the NS5A region were used to test the currently described family of compounds. The compounds were determined to have more than 10-fold less inhibitory activity on cells containing mutations than wild-type cells. Thus, the compounds of the present disclosure can be effective in inhibiting the function of the HCV NS5A protein and are understood to be as effective in combinations as previously described in application PCT/US2006/022197 and commonly owned WO/O4014852. Further, the compounds of the present disclosure can be effective against the HCV 1b genotype. It should also be understood that the compounds of the present disclosure can inhibit multiple genotypes of HCV. […] In one embodiment, compounds of the present disclosure are inhibitory versus 1a, 1b, 2a, 2b, 3a, 4a, and 5a genotypes.

Usually EC50 stands for the concentration giving half of the maximal effect. For the compound `O=C(OCc1ccccc1)N1CCCN1c1nc(-c2ccc(-c3ccc(-c4c[nH]c(N5CCCN5C(=O)OCc5ccccc5)n4)cc3)cc2)c[nH]1` [Example 10, dibenzyl 2,2′-(4,4′-biphenyldiylbis(1H-imidazole-4,2-diyl))di(1-pyrazolidinecarboxylate)], the EC50 (read-out: 1b EC50 in Range) was 1 to 99 nM.

On to `COC(=O)N[C@H](C(=O)N1CCCN1c1nc(-c2ccc(-c3ccc(-c4c[nH]c(N5CCCN5C(=O)[C@@H](NC(=O)OC)C(C)C)n4)cc3)cc2)c[nH]1)C(C)C` [Example 11, methyl ((1S)-1-((2-(4-(4′-(2-(2-((2S)-2-((methoxycarbonyl)amino)-3-methylbutanoyl)-1-pyrazolidinyl)-1H-imidazol-4-yl)-4-biphenylyl)-1H-imidazol-2-yl)-1-pyrazolidinyl)carbonyl)-2-methylpropyl)carbamate], for which the EC50 (read-out: 1b EC50) is < 13.7 nM and the EC50 (read-out: 1b EC50 in Range) fell in the range of 1 to 99 nM.

`COC(=O)N[C@H](C(=O)N1[C@H](c2ncc(-c3ccc(C#Cc4ccc(-c5cnc([C@@H]6CCN(C)N6C(=O)[C@@H](NC(=O)OC)C(C)C)[nH]5)cc4)cc3)[nH]2)CCN1C)C(C)C` [Example 8, methyl ((1S)-1-(((5S)-5-(5-(4-((4-(2-((3S)-2-((2S)-2-((methoxycarbonyl)amino)-3-methylbutanoyl)-1-methyl-3-pyrazolidinyl)-1H-imidazol-5-yl)phenyl)ethynyl)phenyl)-1H-imidazol-2-yl)-2-methyl-1-pyrazolidinyl)carbonyl)-2-methylpropyl)carbamate]: the EC50 was 0.2 nM (read-out: 1b EC50) and 0.101 to 0.999 nM (read-out: 1b EC50 in Range).

On to `COC(=O)N[C@@H](C(=O)N1CCCN1c1nc(-c2ccc(-c3ccc(-c4c[nH]c(N5CCCN5C(=O)[C@H](NC(=O)OC)c5ccccc5)n4)cc3)cc2)c[nH]1)c1ccccc1` [Example 12, dimethyl (4,4′-biphenyldiylbis(1H-imidazole-4,2-diyl-2,1-pyrazolidinediyl((1R)-2-oxo-1-phenyl-2,1-ethanediyl)))biscarbamate], for which the EC50 (read-out: 1b EC50 in Range) lay in the range of 0.101 to 0.999 nM.

On to `COC(=O)N[C@H](C(=O)N1[C@H](c2ncc(-c3ccc(-c4ccc(-c5cnc([C@@H]6CCN(C)N6C(=O)[C@@H](NC(=O)OC)C(C)C)[nH]5)cc4)cc3)[nH]2)CCN1C)C(C)C` [Example 1, methyl ((1S)-1-(((5S)-5-(5-(4′-(2-((3S)-2-((2S)-2-((methoxycarbonyl)amino)-3-methylbutanoyl)-1-methyl-3-pyrazolidinyl)-1H-imidazol-5-yl)-4-biphenylyl)-1H-imidazol-2-yl)-2-methyl-1-pyrazolidinyl)carbonyl)-2-methylpropyl)carbamate], for which the EC50 (read-out: 1b EC50) is 0.003 nM.
